{"source": "patent US20080281105A1", "about": "“Novel Quinolinium Salts and Derivatives” (IMMUSOL INCORPORATED, priority 2005, published 2008)", "key": {"SKBR3 [1]": {"system": "SKBR3", "assay": "Cell growth in liquid culture (alamarBlue)", "conditions": "Homo sapiens, SK-BR-3, 72 h, read-out: IC50 (uM) Liquid culture"}, "MDA-231": {"system": "MDA-231", "assay": "Cell growth in liquid culture (alamarBlue)", "conditions": "Homo sapiens, MDA-MB-231, 72 h, read-out: IC50 (uM) Liquid culture"}, "MDA_MB-435": {"system": "MDA_MB-435", "assay": "Cell growth in liquid culture (alamarBlue)", "conditions": "Homo sapiens, MDA-MB-435, 72 h, read-out: IC50 (uM) Liquid culture"}, "HS578": {"system": "HS578", "assay": "Cell growth in liquid culture (alamarBlue)", "conditions": "Hs578, 72 h, read-out: IC50 (uM) Liquid culture"}, "HCT116": {"system": "HCT116", "assay": "Cell growth in liquid culture (alamarBlue)", "conditions": "Homo sapiens, HCT-116, 72 h, read-out: IC50 (uM) Liquid culture"}, "HCT116-P53(−) [2]": {"system": "HCT116-P53(−)", "assay": "Cell growth in liquid culture (alamarBlue)", "conditions": "72 h, read-out: IC50 (uM) Liquid culture"}, "HT29 [3]": {"system": "HT29", "assay": "Cell growth in liquid culture (alamarBlue)", "conditions": "Homo sapiens, HT-29, 72 h, read-out: IC50 (uM) Liquid culture"}, "SW480 [4]": {"system": "SW480", "assay": "Cell growth in liquid culture (alamarBlue)", "conditions": "Homo sapiens, SW480, 72 h, read-out: IC50 (uM) Liquid culture"}, "DLD1": {"system": "DLD1", "assay": "Cell growth in liquid culture (alamarBlue)", "conditions": "Homo sapiens, DLD-1, 72 h, read-out: IC50 (uM) Liquid culture"}, "Panc-1": {"system": "Panc-1", "assay": "Cell growth in liquid culture (alamarBlue)", "conditions": "Homo sapiens, PANC-1, 72 h, read-out: IC50 (uM) Liquid culture"}, "SK-OV-3 [5]": {"system": "SK-OV-3", "assay": "Cell growth in liquid culture (alamarBlue)", "conditions": "Homo sapiens, SK-OV-3, 72 h, read-out: IC50 (uM) Liquid culture"}, "Caov-3": {"system": "Caov-3", "assay": "Cell growth in liquid culture (alamarBlue)", "conditions": "Homo sapiens, Caov-3, 72 h, read-out: IC50 (uM) Liquid culture"}, "UACC62 [6]": {"system": "UACC62", "assay": "Cell growth in liquid culture (alamarBlue)", "conditions": "Homo sapiens, UACC-62, 72 h, read-out: IC50 (uM) Liquid culture"}, "UACC257 [7]": {"system": "UACC257", "assay": "Cell growth in liquid culture (alamarBlue)", "conditions": "Homo sapiens, UACC-257, 72 h, read-out: IC50 (uM) Liquid culture"}, "A2058": {"system": "A2058", "assay": "Cell growth in liquid culture (alamarBlue)", "conditions": "Homo sapiens, A2058, 72 h, read-out: IC50 (uM) Liquid culture"}, "HUVEC": {"system": "HUVEC", "assay": "Cell growth in liquid culture (alamarBlue)", "conditions": "Homo sapiens, 72 h, read-out: IC50 (uM) Liquid culture"}, "CCD112/N": {"system": "CCD112/N", "assay": "Cell growth in liquid culture (alamarBlue)", "conditions": "72 h, read-out: IC50 (uM) Liquid culture"}, "T47D": {"system": "T47D", "assay": "Cell growth in soft agar culture (alamarBlue)", "conditions": "Homo sapiens, 168 h, read-out: IC50 (uM) Soft agar"}, "SKBR3 [8]": {"system": "SKBR3", "assay": "Cell growth in soft agar culture (alamarBlue)", "conditions": "Homo sapiens, SK-BR-3, 168 h, read-out: IC50 (uM) Soft agar"}, "HCT116-P53(−) [9]": {"system": "HCT116-P53(−)", "assay": "Cell growth in soft agar culture (alamarBlue)", "conditions": "168 h, read-out: IC50 (uM) Soft agar"}, "HT29 [10]": {"system": "HT29", "assay": "Cell growth in soft agar culture (alamarBlue)", "conditions": "Homo sapiens, HT-29, 168 h, read-out: IC50 (uM) Soft agar"}, "SW480 [11]": {"system": "SW480", "assay": "Cell growth in soft agar culture (alamarBlue)", "conditions": "Homo sapiens, SW480, 168 h, read-out: IC50 (uM) Soft agar"}, "Pc3M/N": {"system": "Pc3M/N", "assay": "Cell growth in soft agar culture (alamarBlue)", "conditions": "Homo sapiens, PC-3M, 168 h, read-out: IC50 (uM) Soft agar"}, "PC3": {"system": "PC3", "assay": "Cell growth in soft agar culture (alamarBlue)", "conditions": "Homo sapiens, PC-3, 168 h, read-out: IC50 (uM) Soft agar"}, "SK-OV-3 [12]": {"system": "SK-OV-3", "assay": "Cell growth in soft agar culture (alamarBlue)", "conditions": "Homo sapiens, SK-OV-3, 168 h, read-out: IC50 (uM) Soft agar"}, "OVCAR-5": {"system": "OVCAR-5", "assay": "Cell growth in soft agar culture (alamarBlue)", "conditions": "Homo sapiens, OVCAR-5, 168 h, read-out: IC50 (uM) Soft agar"}, "A549": {"system": "A549", "assay": "Cell growth in soft agar culture (alamarBlue)", "conditions": "Homo sapiens, A549, 168 h, read-out: IC50 (uM) Soft agar"}, "UACC62 [13]": {"system": "UACC62", "assay": "Cell growth in soft agar culture (alamarBlue)", "conditions": "Homo sapiens, UACC-62, 168 h, read-out: IC50 (uM) Soft agar"}, "UACC257 [14]": {"system": "UACC257", "assay": "Cell growth in soft agar culture (alamarBlue)", "conditions": "Homo sapiens, UACC-257, 168 h, read-out: IC50 (uM) Soft agar"}}, "data": [{"compound": "Cc1cc(/C=C/c2ccc3cc(N(C)C)ccc3[n+]2C)c(C)n1-c1ccccc1", "note": "[Example 1, Pyrvinium Phosphate]", "values": [{"measurement": "IC50", "setting": "SKBR3 [1]", "value": "~1", "unit": "µM"}, {"measurement": "IC50", "setting": "MDA-231", "value": "0.1 to 0.3", "unit": "µM"}, {"measurement": "IC50", "setting": "MDA_MB-435", "value": "0.3 to 1", "unit": "µM"}, {"measurement": "IC50", "setting": "HS578", "value": "0.1 to 0.3", "unit": "µM"}, {"measurement": "IC50", "setting": "HCT116", "value": "> 1", "unit": "µM"}, {"measurement": "IC50", "setting": "HCT116-P53(−) [2]", "value": "> 1", "unit": "µM"}, {"measurement": "IC50", "setting": "HT29 [3]", "value": "> 1", "unit": "µM"}, {"measurement": "IC50", "setting": "SW480 [4]", "value": "0.3 to 1", "unit": "µM"}, {"measurement": "IC50", "setting": "DLD1", "value": "0.3 to 1", "unit": "µM"}, {"measurement": "IC50", "setting": "Panc-1", "value": "0.3 to 1", "unit": "µM"}, {"measurement": "IC50", "setting": "SK-OV-3 [5]", "value": "0.1 to 0.3", "unit": "µM"}, {"measurement": "IC50", "setting": "Caov-3", "value": "0.03 to 0.1", "unit": "µM"}, {"measurement": "IC50", "setting": "UACC62 [6]", "value": "0.1 to 0.3", "unit": "µM"}, {"measurement": "IC50", "setting": "UACC257 [7]", "value": "~0.1", "unit": "µM"}, {"measurement": "IC50", "setting": "A2058", "value": "0.1 to 0.3", "unit": "µM"}, {"measurement": "IC50", "setting": "HUVEC", "value": "0.03 to 0.1", "unit": "µM"}, {"measurement": "IC50", "setting": "CCD112/N", "value": "~1", "unit": "µM"}, {"measurement": "IC50", "setting": "T47D", "value": "< 0.03", "unit": "µM"}, {"measurement": "IC50", "setting": "SKBR3 [8]", "value": "~1", "unit": "µM"}, {"measurement": "IC50", "setting": "HCT116-P53(−) [9]", "value": "0.1 to 0.3", "unit": "µM"}, {"measurement": "IC50", "setting": "HT29 [10]", "value": "0.03 to 0.1", "unit": "µM"}, {"measurement": "IC50", "setting": "SW480 [11]", "value": "0.3 to 1", "unit": "µM"}, {"measurement": "IC50", "setting": "Pc3M/N", "value": "~0.3", "unit": "µM"}, {"measurement": "IC50", "setting": "PC3", "value": "0.1 to 0.3", "unit": "µM"}, {"measurement": "IC50", "setting": "SK-OV-3 [12]", "value": "0.03 to 0.1", "unit": "µM"}, {"measurement": "IC50", "setting": "OVCAR-5", "value": "0.03 to 0.1", "unit": "µM"}, {"measurement": "IC50", "setting": "A549", "value": "0.033 to 0.1", "unit": "µM"}, {"measurement": "IC50", "setting": "UACC62 [13]", "value": "0.03 to 0.1", "unit": "µM"}, {"measurement": "IC50", "setting": "UACC257 [14]", "value": "0.1 to 0.3", "unit": "µM"}]}]}
